# Data taken from article PMC9276676, “Difluoromethylornithine (DFMO) and AMXT 1501 inhibit capsule biosynthesis in pneumococci” (Scientific Reports, 2022).
# Like-named read-outs stand apart in the source and are kept apart here.
# Key:
# [1] = tested on: D39; experiment: Viability/replication at 1/2 MIC DFMO (CFU on blood agar); type: cell-based, Streptococcus pneumoniae; settings: 1/2 MIC DFMO (137 mM)
# Method: (§1) S. pneumoniae serotypes 4 (TIGR4), 2 (D39), 19F (EF3030) and 3 (WU2) were cultured in Todd Hewitt broth supplemented with yeast extract (THY). Supplementation with DFMO ranging from 1.1 to 549 mM was carried out in triplicate in a 96-well plate and incubated at 37 °C and 5% CO2 in a Cytation™ 5 cell imaging multi-mode reader (BioTek, Winooski, VT). The change in optical density at 600 nm (OD600) was measured every hour for 24 h and used to determine the minimum inhibitory concentration (MIC) of DFMO. The optical density data was analyzed using GrowthRates 4.0 software. To determine whether DFMO at sub-MIC is bacteriostatic or lethal to pneumococcal cells, all strains were cultured in the presence or absence of 1/2 MIC DFMO. OD600 was measured every hour and CFU were enumerated on a blood agar plate (BAP) every 2 h over an 8 h incubation period.
# [2] = tested on: EF3030; experiment: as above; type: cell-based, Streptococcus pneumoniae; settings: 1/2 MIC DFMO (137 mM)
# Method: as §1
# [3] = tested on: TIGR4; experiment: as above; type: cell-based, Streptococcus pneumoniae; settings: 1/2 MIC DFMO (137 mM)
# Method: as §1
# [4] = target: SP_0916 (arginine decarboxylase, ADC) (Streptococcus pneumoniae, UniProt A0A0H2UPK4); experiment: Inhibition of decarboxylase activities of recombinant SP_0916 (LC-MS); type: biochemical; settings: 10 mM substrate, 15 min, 37 °C
# Text: We determined the impact of DFMO (ODC/ADC inhibitor) and α-difluoromethylarginine (DFMA, an ADC inhibitor) on the decarboxylase activities of SP_0916. BL21(DE3) cells expressing recombinant His tag SP_0916 were lysed with B-PER reagent buffer (Thermo Fisher Scientific, Waltham, MA, USA), lysate separated by loading unto HisPur Cobalt Spin Column (Thermo Fisher Scientific, Waltham, MA, USA), desalted using Sephadex G-25 PD-10 column (GE Healthcare, Chicago, IL, USA), and protein concentration estimated using the Pierce BCA Protein Assay kit (Thermo Fisher Scientific, Waltham, MA, USA).
# SP_0916-encoded protein (0.926 µmol L^−1) was mixed with 10 mM substrate (arginine, lysine or ornithine) in the reaction mixture (500 µL reaction volume, 50 mM Tris–HCl, pH 8.0) that contains 2.5 mM MgSO4 and 0.6 mM PLP. DFMO was diluted in water to 3–900 mM and added to the reaction mixture after 5 min preincubation at 37 °C in the dark. DFMA stock was made in a similar manner but was diluted in water to 0.3–1000 µM. The enzyme and inhibitor were incubated at 37 °C for 15 min in the dark and the reaction terminated with 0.3 M perchloric acid. After incubation on ice for 15 min, the samples were neutralized with 25 µL of 10 N KOH and extracted with 1 mL of 1-butanol. The organic layer was dried under nitrogen gas and reconstituted with 100 µL of water containing Spermidine-d8 and Glucose-d7 as an internal standard. Analysis of the extracts was performed on a Surveyor LC–MS system. 5 µL of reconstitution was injected to the LC–MS system for detection of the products (agmatine, cadaverine or putrescine). We used internal standards to normalize and determine the peak intensity (area ratio) for each metabolite detected. Enzyme activity without inhibitor is referred to as a control activity. All experiments were performed in triplicate. The concentration of inhibitor that inhibited 50% of the control activity (IC50 value) was determined by varying the concentration of the indicated DFMO or DFMA and measuring the decarboxylase activity. Sigma Plot v. 12 was used to fit the curve through the points and IC50 values were interpolated from the fitted curve.
# Sequence of SP_0916 (arginine decarboxylase, ADC) (A0A0H2UPK4 entry or part of it): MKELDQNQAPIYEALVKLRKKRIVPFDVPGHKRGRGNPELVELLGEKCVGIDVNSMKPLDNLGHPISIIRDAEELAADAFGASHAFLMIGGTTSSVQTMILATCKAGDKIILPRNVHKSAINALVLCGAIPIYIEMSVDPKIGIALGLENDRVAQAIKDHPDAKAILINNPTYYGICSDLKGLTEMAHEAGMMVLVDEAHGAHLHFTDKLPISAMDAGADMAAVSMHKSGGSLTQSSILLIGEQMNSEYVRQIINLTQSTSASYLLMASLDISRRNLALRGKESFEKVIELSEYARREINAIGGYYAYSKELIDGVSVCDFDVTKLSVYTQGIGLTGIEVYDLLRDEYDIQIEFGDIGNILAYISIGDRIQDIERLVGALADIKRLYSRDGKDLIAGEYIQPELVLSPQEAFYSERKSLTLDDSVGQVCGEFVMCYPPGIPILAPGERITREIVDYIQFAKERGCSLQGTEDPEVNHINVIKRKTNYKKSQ
compound,measurement,setting,value
"NCCC[C@](N)(C(=O)O)C(F)F [DFMO, α-difluoromethylornithine]",effect on viability (viability curves),[1],some bacteriostatic effect
same,effect on viability (viability curves),[2],some bacteriostatic effect
same,effect on viability (viability curves),[3],some bacteriostatic effect
same,IC50,"[4]; DFMO IC50, ornithine to putrescine",26.6 ± 4.1 mM
same,IC50,"[4]; arginine to agmatine, read-out: DFMO IC50",75.1 ± 5.5 mM
same,IC50,"[4]; lysine to cadaverine, read-out: DFMO IC50",8.2 ± 0.2 mM
